For test [1], the target named is T1, Gamma-aminobutyric acid receptor subunit rho-1 (Homo sapiens, UniProt P24046). Briefly: Antagonist activity at human GABAC rho1 receptor expressed in Xenopus laevis oocytes assessed as inhibition of GABA-induced current at 300 uM by two electrode voltage clamp assay relative to control. The note with it: Oocyte. In kind it is cell-based. On the technique in general: Two-electrode voltage clamp is typically applied to oocytes expressing channels or transporters.

Test [2] concerns the target GABA-A receptor; alpha-1/beta-2/gamma-2 (Homo sapiens) (UniProt P14867+P47870+P18507). Description: Antagonist activity at human GABAA alpha1beta2gamma2L receptor expressed in Xenopus laevis oocytes assessed as inhibition of GABA-induced current at 300 uM by two electrode voltage clamp assay relative to control. In kind it is cell-based. The note with it: Oocyte.
Test [3] deals with T1, Gamma-aminobutyric acid receptor subunit rho-1. Description: Antagonist activity at human GABAC rho1 receptor expressed in Xenopus laevis oocytes assessed as inhibition of GABA-induced current at 600 uM by two electrode voltage clamp assay relative to control. The class given is cell-based. To be noted: Oocyte.
Test [4] shares this target. Briefly: Antagonist activity at human GABAC rho1 receptor expressed in Xenopus laevis oocytes assessed as inhibition of GABA-induced current by two electrode voltage clamp assay. In kind it is cell-based, Oocyte.
Test [5] shares this target. Briefly: Antagonist activity at human GABAC rho1 receptor expressed in Xenopus laevis oocytes assessed as inhibition of GABA-induced current preincubated for 5 mins by two electrode voltage clamp assay. The class given is cell-based, Oocyte.
The nature of test [6]: Agonist activity at GABAC receptor (unknown origin) expressed in Xenopus laevis oocytes. In kind it is cell-based. To be noted: Homo sapiens, Oocyte.
The species named for test [7] is Homo sapiens. Description: Selectivity for human GABAC rho1 receptor over human GABAA alpha1beta2gamma2L receptor.
Test [8] deals with T1, Gamma-aminobutyric acid receptor subunit rho-1. Description: Agonist activity at GABAC rho1 receptor (unknown origin).
The target is the same in test [9]. Description: Partial agonist activity at GABAC rho1 receptor (unknown origin).
Test [10] deals with GABA-A receptor; agonist GABA site. Description: Agonist activity at GABAA receptor (unknown origin). In kind it is protein-complex assay, Homo sapiens.

The structures appear in SMILES notation. Active and inactive are the calls of the source. The calls are words filed in the database; no cut-off is given here. Some results are limits rather than exact numbers.

T1 sequence (P24046 whole entry): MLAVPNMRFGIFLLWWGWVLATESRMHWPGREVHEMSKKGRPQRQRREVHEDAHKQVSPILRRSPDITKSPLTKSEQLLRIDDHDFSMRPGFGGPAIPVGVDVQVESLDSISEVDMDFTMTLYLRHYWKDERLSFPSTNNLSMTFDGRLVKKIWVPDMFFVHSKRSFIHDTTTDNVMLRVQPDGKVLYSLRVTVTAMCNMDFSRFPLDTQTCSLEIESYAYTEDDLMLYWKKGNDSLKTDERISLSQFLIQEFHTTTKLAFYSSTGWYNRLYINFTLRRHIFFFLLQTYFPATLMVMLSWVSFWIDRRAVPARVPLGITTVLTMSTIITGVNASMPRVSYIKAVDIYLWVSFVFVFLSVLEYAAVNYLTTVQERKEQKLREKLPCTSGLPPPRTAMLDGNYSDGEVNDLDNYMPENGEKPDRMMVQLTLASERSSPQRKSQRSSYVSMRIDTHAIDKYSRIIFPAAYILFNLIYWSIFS

On to `CCCCP(=O)(O)C1=CC[C@@H](N)C1`, for which, in test [1], the inhibition (as a rule, how much of the control response was suppressed) came out at 92%. Besides, the inhibition entry in test [2] is “inactive”.

Regarding `CCCCP(=O)(O)C1=CC[C@H](NC(=O)CCCCNC(=O)c2ccccc2NC)C1`, the inhibition in test [3] came out at 31%.

As for `CCCCP(=O)(O)C1=CC[C@H](NC(=O)CCCC[C@@H]2SC[C@@H]3NC(=O)N[C@@H]32)C1`, in [1], the inhibition result was “inactive”.

With `CCCCP(=O)(O)C1=CC[C@H](NC(=O)CCCCCNC(=O)CCCC[C@@H]2SC[C@@H]3NC(=O)N[C@@H]32)C1`, the IC50 – broadly, the midpoint of a concentration-inhibition curve – is 148 µM in test [4] and 76.5 µM in test [5]. Further, the inhibition in test [2] turned out to be 9%.

With `CCCCP(=O)(O)C1=CC[C@H](NC(=O)CCCCCNC(=O)c2ccccc2NC)C1`, the inhibition in test [3] is 62%. Further, in test [2], the inhibition result is “inactive”.

Regarding `O=C(CCCC[C@@H]1SC[C@@H]2NC(=O)N[C@@H]21)NCCCCCC(=O)NCc1cc(O)no1`, the EC50 – broadly, the concentration that produces a half-maximal response – in test [6] was found to be 20 µM.

In the case of `CCCCP(=O)(O)C1=CC[C@H](N)C1`, the IC50 in [4] was 9.76 µM. For the same molecule, the inhibition in test [1] stood at 97%. Also, in [2], the inhibition result is “inactive”.

On to `CCCCP(=O)(O)C1=CC[C@H](NC(=O)CCCCCNC(=O)CCC2=C3C(C)=CC(C)=[N+]3[B-](F)(F)n3c(C)cc(C)c32)C1`, for which the IC50 was 103 µM in test [4] and 58.6 µM in test [5]. Besides, the Selectivity ratio in [7] is above 100. The inhibition entry in [2] is “inactive”.

As to `CCCCP(=O)(O)C1=CC[C@@H](NC(=O)CCCCCNC(=O)c2ccccc2NC)C1`, the inhibition in [3] turned out to be 56%. Moreover, in test [2], the inhibition result was “inactive”.

In the case of `CCCCP(=O)(O)C1=CC[C@H](NC(=O)CNC(=O)c2ccccc2NC)C1`, in test [3], the inhibition was determined as 8%.

As to `CCCCP(=O)(O)C1=CC[C@H](NC(=O)CCCCCCCCCCNC(=O)c2ccccc2NC)C1`, in test [3], the inhibition turned out to be 8%.

On to `CCCCP(=O)(O)C1=CC[C@H](NC(=O)CCCCCCNC(=O)c2ccccc2NC)C1`, for which the inhibition in test [3] was determined as 55%.

In the case of `CCCCP(=O)(O)C1=CC[C@H](NC(=O)CCCCCCCNC(=O)c2ccccc2NC)C1`, the inhibition in [3] amounted to 24%.

Consider `CCCCP(=O)(O)C1=CC[C@H](NC(=O)CCCNC(=O)c2ccccc2NC)C1`, for which, in test [3], the inhibition is 23%.

As to `Cc1nc[nH]c1CC(=O)O`, in test [8], the concentration giving a half-maximal response (EC50) came to 22 µM.

Consider `NCc1cc(=O)[nH]o1` [MUSCIMOL], for which the results for the EC50 in test [6], in test [9] and in test [10] were 2 µM, 2.3 µM and 27 µM, respectively.

For `CCCCP(=O)(O)C1=CC[C@H](NC(=O)CCCCCNc2ccc([N+](=O)[O-])c3nonc23)C1`, the half-maximal inhibitory concentration (IC50) worked out at 281 µM in test [4] and 193 µM in test [5]. Also, in test [2], the inhibition result was “inactive”.

On to `NC[C@@H]1C[C@@H]1C(=O)O`, for which, in test [8], a half-maximal effect (EC50) was put at 39.7 µM.

(Values after ChEMBL document CHEMBL2331375, “Design, Synthesis, and Pharmacological Evaluation of Fluorescent and Biotinylated Antagonists of ρ1 GABAC Receptors” (ACS Med Chem Lett, 2013).)
